Laboratory results: patent US6743822B2, “Reduction of hair growth” (The Gillette Company, priority 2001, dated 2004)
“And” between values parts separate entries of the source, which are not always exact repeats. Equal entries are not always repeated. “Also recorded” adds a separate entry of the source.

Assays:
[1] = system: Hamster flank organ hair follicles; test: Golden Syrian Hamster hair follicle density assay (image analysis); format: in vivo; settings: 7 days, dose 0.5%, vehicle of Example 2
Experimental: (§1) Hamster flank organs were treated topically with D,L-DFMO or L-DFMO with the contra-lateral side treated with the carrier vehicle without DFMO. Animals were sacrificed at the indicated time-point (4 days or 7 days) and back skins containing the flank organ were removed for analysis. Glycerin was applied to the underside of the dorsal skin of the hamster flank organ regions. Flank organ hair follicle mass and density were assessed, by imaging the region with a digital camera, and analysis of the images was performed with Ultimage/Pro (version 2.5) software by […]. This technique permitted the quantification of hair follicle mass based on particle area and number, and hair follicle density based on particle number.

[2] = system: Human hair follicles in culture (facial skin); test: Human Hair Follicle Growth assay; format: cell-based; settings: 0.5 mM, seven days in culture
Experimental: Hair follicles were isolated from human facial (obtained from patients who underwent face lift surgery) skin samples using fine forceps under a dissecting microscope and grown in tissue culture Williams E medium—supplemented with insulin (10 μg/ml), glutamine (2 mM), hydrocortisone ([…]) and antibiotics/antimycotics (pen/strep). Hair lengths were determined on day 0, and day 7. Human hair follicles in culture were treated with 0.5 mM concentration of L-DFMO, D-DFMO, D,L-DFMO. Controls were cultured in Williams E tissue culture medium without DFMO. The increase in hair fiber length was determined over seven days. […] Only L-DFMO produced statistically significant reduction in hair growth (p=0.003) in this time period. […] The “P” values, as determined by paired test analysis, were 0.97, 0.78 and 0.003 for the D,L-DFMO, D-DFMO and L-DFMO, respectively.

[3] = system: flank organs (hair growth) of male intact Golden Syrian hamsters; test: Golden Syrian Hamster assay (flank organ hair mass); format: in vivo; settings: dose 0.3%, topical; for Hair Mass in mg (drug treated): vehicle of Example 2, thirteen applications; for Percent inhibition (hair mass): vehicle of Example 2, versus vehicle treated flank organ
From the text: Male intact Golden Syrian hamsters are considered acceptable models for human beard hair growth in that they display oval shaped flank organs, one on each side, each about 8 mm. in major diameter. These organs produce fine light colored hair typical of the animal pelage found on the body. In response to androgens the flank organs produce dark coarse hair similar to male human beard hair. To evaluate the effectiveness of a composition, the flank organs of each of a group of hamsters are depilated by applying a thioglycolate-based chemical depilatory (Surgex) and/or shaved. To one organ of each animal 10 μl of vehicle alone once a day is applied, while to the other organ of each animal an equal amount of vehicle containing substantially optically pure L-DFMO, substantially optically pure D-DFMO, racemic DFMO, or non-racemic DFMO including a preponderance of L-DFMO. After thirteen applications (one application per day for five days a week), the flank organs are shaved and the amount of recovered hair (hair mass) from each is weighed. For certain experiments, where indicated, the treatment period was for less than 13 applications. The reduced treatment period allowed for determination of onset in activity. Percent-reduction of hair growth is calculated by subtracting the hair mass (mg) value of the test compound treated side from the hair mass value of the vehicle treated side; the delta value obtained is then divided by the hair mass value of the vehicle treated side, and the resultant number is multiplied by 100. Visual evaluations comparing hair regrowth between the drug treated and the vehicle control site were made generally on day-8, day-15 and on day-19. These observations provide an identification of onset in activity (and thus efficacy). The above-described assay will be referred to herein as the “Golden Syrian Hamster” assay The efficacy of DFMO-containing compositions containing greater than 90% L-DFMO (“L-DFMO” for purposes of the below assays), racemic DFMO (“D,L-DFMO”), and greater than 90% D-DFMO (or “D-DFMO” for purposes of the below assays) was determined using the Golden Syrian Hamster assay. The L-DFMO produced a substantially greater hair mass reduction than the D-DFMO or D,L-DFMO (Table 1). The average inhibition at the 0.3% dose for the L-, D- and D,L-DFMO was 43±6%, 19±11% and 25±9%, respectively.

[4] = system: flank organ hair regrowth of Golden Syrian hamsters; test: Golden Syrian Hamster visual efficacy assay; format: in vivo; settings: dose 2%; for Number of animals demonstrating maximal efficacy (observation score of +3) after full three weeks of treatment / Percent of animals demonstrating maximal efficacy (observation score of +3) after full three weeks of treatment: vehicle of Example 2; for Number of animals demonstrating efficacy (score of +1 or greater) after two weeks of treatment / Percent of animals demonstrating efficacy (score of +1 or greater) after two weeks of treatment: vehicle of Example 2, blinded visual score
From the text: Male intact Golden Syrian hamsters are considered acceptable models for human beard hair growth in that they display oval shaped flank organs, one on each side, each about 8 mm. in major diameter. These organs produce fine light colored hair typical of the animal pelage found on the body. In response to androgens the flank organs produce dark coarse hair similar to male human beard hair. To evaluate the effectiveness of a composition, the flank organs of each of a group of hamsters are depilated by applying a thioglycolate-based chemical depilatory (Surgex) and/or shaved. To one organ of each animal 10 μl of vehicle alone once a day is applied, while to the other organ of each animal an equal amount of vehicle containing substantially optically pure L-DFMO, substantially optically pure D-DFMO, racemic DFMO, or non-racemic DFMO including a preponderance of L-DFMO. After thirteen applications (one application per day for five days a week), the flank organs are shaved and the amount of recovered hair (hair mass) from each is weighed. For certain experiments, where indicated, the treatment period was for less than 13 applications. The reduced treatment period allowed for determination of onset in activity. Percent-reduction of hair growth is calculated by subtracting the hair mass (mg) value of the test compound treated side from the hair mass value of the vehicle treated side; the delta value obtained is then divided by the hair mass value of the vehicle treated side, and the resultant number is multiplied by 100. Visual evaluations comparing hair regrowth between the drug treated and the vehicle control site were made generally on day-8, day-15 and on day-19. These observations provide an identification of onset in activity (and thus efficacy). The assay in a ‘blinded’ study included visual observations comparing the regrowth of hair on the DFMO treated flank organ with the vehicle treated flank organ during the course of treatment. Scores were assigned from 0 to +3. 0, no difference; +1, DFMO treated shorter than vehicle treated indicating efficacy; +2, DFMO treated much shorter than vehicle treated; +3, DFMO treated nearly bald indicating maximal efficacy. […] This assay will be referred to herein as the “Golden Syrian Hamster visual efficacy” assay.

[5] = system: Hamster flank organ hair follicles; test: Golden Syrian Hamster hair follicle spatial mass assay (image analysis); format: in vivo
Experimental: as §1

[6] = system: flank organs (hair growth) of Golden Syrian hamsters; test: Twice a Week Golden Syrian Hamster assay; format: in vivo; settings: dose 1%, 2×/wk, vehicle of Example 2
From the text: Male intact Golden Syrian hamsters are considered acceptable models for human beard hair growth in that they display oval shaped flank organs, one on each side, each about 8 mm. in major diameter. These organs produce fine light colored hair typical of the animal pelage found on the body. In response to androgens the flank organs produce dark coarse hair similar to male human beard hair. To evaluate the effectiveness of a composition, the flank organs of each of a group of hamsters are depilated by applying a thioglycolate-based chemical depilatory (Surgex) and/or shaved. To one organ of each animal 10 μl of vehicle alone once a day is applied, while to the other organ of each animal an equal amount of vehicle containing substantially optically pure L-DFMO, substantially optically pure D-DFMO, racemic DFMO, or non-racemic DFMO including a preponderance of L-DFMO. After thirteen applications (one application per day for five days a week), the flank organs are shaved and the amount of recovered hair (hair mass) from each is weighed. For certain experiments, where indicated, the treatment period was for less than 13 applications. The reduced treatment period allowed for determination of onset in activity. Percent-reduction of hair growth is calculated by subtracting the hair mass (mg) value of the test compound treated side from the hair mass value of the vehicle treated side; the delta value obtained is then divided by the hair mass value of the vehicle treated side, and the resultant number is multiplied by 100. Visual evaluations comparing hair regrowth between the drug treated and the vehicle control site were made generally on day-8, day-15 and on day-19. These observations provide an identification of onset in activity (and thus efficacy). The Golden Syrian Hamster assay was modified so that the animals received a reduced treatment frequency with DFMO, namely twice per week instead of five times a week.

[7] = 4 Days, dose 1%, vehicle of Example 2
[8] = 7 Days, dose 0.5%, vehicle of Example 2 (Table 5)
[9] = 7 days, dose 0.5%, vehicle of Example 2

SMILES	% Inhibition of Hair Follicle Density [1]	inhibition at 500 µM ([2]; Homo sapiens, 168 h, read-out: hair follicle growth inhibition (increase in hair fiber length, as compared to controls))	Hair Mass in mg (drug treated) [3]	Percent inhibition (hair mass) [3]	Number of animals demonstrating maximal efficacy (observation score of +3) after full three weeks of treatment [4]	Percent of animals demonstrating maximal efficacy (observation score of +3) after full three weeks of treatment [4]	Number of animals demonstrating efficacy (score of +1 or greater) after two weeks of treatment [4]	Percent of animals demonstrating efficacy (score of +1 or greater) after two weeks of treatment [4]	Percent of animals demonstrating efficacy (score of +1 or greater) after two weeks of treatment ([4]; listed as D, L-DFMO)	Percent of animals demonstrating maximal efficacy (observation score of +3) after full three weeks of treatment ([4]; listed as racemic DFMO)	Hair follicle mass as determined by image analysis: particle area (×10^6), Treated [5, 7]	Inhibition % of hair follicle mass [5, 7]	Inhibition % of hair follicle mass [5, 8]	Hair follicle mass as determined by image analysis: particle area (×10^6), Treated [5, 9]	Hair Mass in mg (drug treated) [6]	hair follicle growth inhibition (increase in hair fiber length, as compared to controls) [2]	hair follicle mass reduction, fold greater than by D,L-DFMO ([5]; 0.5% dose, 7 days (Table 5))	increase in efficacy (hair follicle spatial mass), fold versus D,L-DFMO ([5]; 0.5% dose, 7 days, another assay (Table 6))	hair follicle mass reduction, fold greater than by D,L-DFMO ([5]; 1% dose, 4 days)	% Inhibition of Hair Follicle Mass ([5]; 7 days, dose 0.5%, another assay (Table 6))
NCCC[C@](N)(C(=O)O)C(F)F (racemic) [D,L-DFMO, α-Difluoromethylornithine]	no effect; also recorded: No Inhibition	1 ± 12%	1.53 ± 0.19 mg	25±9%	1 out of 8	13%	3 out of 8	38%	38%	13%	4.89 ± 0.9 ×10^6	20% and 20 ± 9%	15% and 15 ± 13%	2.71 ± .71 ×10^6	1.74 ± 0.18 mg	–	–	–	–	–
NCCC[C@@](N)(C(=O)O)C(F)F [D-DFMO]	–	–	1.39 ± 0.12 mg	19±11%	0 out of 8	–	2 out of 8	25%	–	–	–	–	–	–	1.80 ± 0.18 mg	4±13%	–	–	–	–
NCCC[C@](N)(C(=O)O)C(F)F [L-DFMO, L-α-difluoromethylornithine]	45% and 45 ± 5%	–	1.06 ± 0.14 mg	43±6%	5 out of 8	–	7 out of 8	–	–	–	4.23 ± 1.1 ×10^6	43% and 43 ± 9%	58% and 58 ± 11%	2.22 ± .94 ×10^6	1.83 ± 0.38 mg	36±12%	~4 fold	~4 fold	2 fold	41% and 41 ± 15%
